Source: patent US20200368249A1 (priority 2017, published 2020)
Values joined by “and” are separate entries in the source; they are usually repeats but may differ in a detail not shown here. Equal values may be shown once.

Assays:
MtbTopo1 = MtbTopo1 (Mycobacterium tuberculosis, UniProt P9WG49); assay: topoisomerase 1A relaxation assay, MtbTopo1; assay type: biochemical, M. tuberculosis
Description: (§1) In FIGS. 7A and 7B, R indicates relaxed circular DNA; PR indicates partially relaxed DNA; and SC indicates supercoiled DNA.

M. tuberculosis gyrase = M. tuberculosis gyrase (Mycobacterium tuberculosis, UniProt P9WG45+P9WG47)
Protocol: (§2) In FIG. 8A-FIG. 8D, the IC50 was determined as the drug concentration which inhibited 50% of the supercoiling activity.

[1] = reductive demetallation by glutathione; assay type: physicochemical
Mab 390S-lux = assay type: cell-based, M. abscessus 390S
Mtb-lux = assay type: cell-based, M. tuberculosis CDC1551
tolerability of mice = assay type: in vivo; settings: 400 mg/kg, preliminary work
[2] = test system: J774A.1 macrophage cell line; assay: cytotoxicity assay (resazurin); assay type: cell-based; settings: J774 macrophages, 24 h
Protocol: Cytotoxicity was assessed on J774A.1 (ATCC® TIB67™) macrophage cell line. Macrophages were cultured in Dulbecco's Modified Eagle Medium (DMEM, GIBCO) supplemented with 10% heat inactivated fetal calf serum (Atlanta Biologicals), 1 mM sodium pyruvate (CellGro), 2 mM L-glutamine (CORNING) and 1% PenStrep (100 U/mL Penicillin, […] Streptomycin, GIBCO). Macrophages were seeded in a 384-well black transparent bottom plate (Corning) at 2.5×10^4 cells/well. After macrophages were allowed to adhere for 4-6 h, a two-fold dilution series of the compounds (200-0.006 μM) and controls (2% Triton X and 0.5% DMSO) were added to the wells. The plate was incubated for 24 h and then 1/10th volume of resazurin dye was added. Fluorescence was measured following 4 h incubation with the dye at an excitation of 560 nm and emission at 590 nm with cell viability indicated by conversion of resazurin to fluorescent product resofurin. Viability is determined as percent growth calculated relative to the DMSO control.

E. coli gyrase = E. coli gyrase (Escherichia coli, UniProt P0AES4+P0AES6)
Protocol: as §2

EcTopo1 = EcTopo1 (Escherichia coli, UniProt P06612)
Description: as §1

Mtb CDC1551 = assay: time-kill kinetic assay, Mtb; assay type: cell-based, M. tuberculosis; settings: for mode of action against Mtb: actively replicating Mtb
Protocol: To examine whether bacterial killing is concentration and/or time-dependent, a time-kill kinetic study was carried out with 8, 10, 11, 14, and 15. For Mtb, CDC1551 cultures diluted to an OD of 0.01 in 7H9 were added to a solid-white 384-well plate containing compounds at final concentrations of 0, 1×, 4× and 8× MIC in a total volume of 30 μl. DMSO control was also included. The plate was incubated for 6 days for Mtb. At every time point-0, 24, 48 and 72 h post-inoculation, an aliquot was taken, serially diluted and 50 μl plated onto 7H10 quad-plates supplemented with OADC. Colonies were counted after 3-4 weeks of incubation at 37° C. and CFU/ml was calculated. […] The plate was incubated for 3 days and colonies were counted after 5 days of incubation following plating. A 1-2 log10 decrease in CFU/ml is considered bactericidal. Luminescence was also read at every time point before taking an aliquot for serial dilution.

Mtb = settings: cited from earlier work
Mab = settings: even at 32 and 64-fold MIC; cited from earlier work

Sequence of E. coli gyrase (P0AES4 whole entry, one chain of several): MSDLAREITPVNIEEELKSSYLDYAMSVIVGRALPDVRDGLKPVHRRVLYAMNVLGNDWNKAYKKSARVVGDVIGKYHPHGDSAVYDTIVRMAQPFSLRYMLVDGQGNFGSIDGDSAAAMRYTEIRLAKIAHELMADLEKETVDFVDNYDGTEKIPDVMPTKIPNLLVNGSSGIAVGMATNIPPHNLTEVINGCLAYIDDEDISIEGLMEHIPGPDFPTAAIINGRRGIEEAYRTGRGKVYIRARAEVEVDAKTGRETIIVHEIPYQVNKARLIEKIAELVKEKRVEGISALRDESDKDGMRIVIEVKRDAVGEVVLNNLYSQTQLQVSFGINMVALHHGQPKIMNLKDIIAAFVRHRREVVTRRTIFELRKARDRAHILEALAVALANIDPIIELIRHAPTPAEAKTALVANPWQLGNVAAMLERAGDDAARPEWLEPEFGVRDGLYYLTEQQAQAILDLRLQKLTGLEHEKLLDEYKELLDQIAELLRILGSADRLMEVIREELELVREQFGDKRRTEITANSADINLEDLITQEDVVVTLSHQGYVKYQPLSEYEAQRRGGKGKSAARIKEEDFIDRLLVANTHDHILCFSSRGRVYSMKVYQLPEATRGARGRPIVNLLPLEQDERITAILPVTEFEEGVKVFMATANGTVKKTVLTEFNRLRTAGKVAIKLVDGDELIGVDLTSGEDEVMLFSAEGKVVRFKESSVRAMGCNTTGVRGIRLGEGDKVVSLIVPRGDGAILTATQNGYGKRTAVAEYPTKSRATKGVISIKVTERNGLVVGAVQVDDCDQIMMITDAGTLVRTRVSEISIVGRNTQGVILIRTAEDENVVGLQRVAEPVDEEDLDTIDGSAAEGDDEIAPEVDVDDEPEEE
Sequence of EcTopo1 (P06612 whole entry): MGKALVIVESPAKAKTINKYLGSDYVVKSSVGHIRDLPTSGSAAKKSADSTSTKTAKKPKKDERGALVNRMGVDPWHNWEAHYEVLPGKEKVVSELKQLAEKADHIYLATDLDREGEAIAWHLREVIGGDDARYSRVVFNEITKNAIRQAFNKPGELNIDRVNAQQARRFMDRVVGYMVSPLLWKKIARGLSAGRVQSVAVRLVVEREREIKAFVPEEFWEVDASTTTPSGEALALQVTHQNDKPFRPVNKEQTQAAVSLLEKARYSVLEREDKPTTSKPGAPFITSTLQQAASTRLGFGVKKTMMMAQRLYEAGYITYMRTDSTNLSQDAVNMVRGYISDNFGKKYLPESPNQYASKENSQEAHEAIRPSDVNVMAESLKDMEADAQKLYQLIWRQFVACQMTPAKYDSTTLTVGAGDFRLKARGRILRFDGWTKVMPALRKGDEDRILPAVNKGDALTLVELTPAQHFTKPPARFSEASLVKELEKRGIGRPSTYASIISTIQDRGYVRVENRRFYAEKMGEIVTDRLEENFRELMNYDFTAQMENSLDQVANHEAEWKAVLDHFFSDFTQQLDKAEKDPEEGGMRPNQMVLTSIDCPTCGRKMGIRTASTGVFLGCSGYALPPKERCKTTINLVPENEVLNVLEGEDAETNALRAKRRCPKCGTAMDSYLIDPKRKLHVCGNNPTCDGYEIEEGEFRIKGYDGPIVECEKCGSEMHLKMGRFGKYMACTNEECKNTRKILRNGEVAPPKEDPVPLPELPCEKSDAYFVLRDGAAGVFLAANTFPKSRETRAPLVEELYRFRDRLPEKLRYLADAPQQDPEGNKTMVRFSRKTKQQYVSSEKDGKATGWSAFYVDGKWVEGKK
Sequence of MtbTopo1 (P9WG49 whole entry, looked up): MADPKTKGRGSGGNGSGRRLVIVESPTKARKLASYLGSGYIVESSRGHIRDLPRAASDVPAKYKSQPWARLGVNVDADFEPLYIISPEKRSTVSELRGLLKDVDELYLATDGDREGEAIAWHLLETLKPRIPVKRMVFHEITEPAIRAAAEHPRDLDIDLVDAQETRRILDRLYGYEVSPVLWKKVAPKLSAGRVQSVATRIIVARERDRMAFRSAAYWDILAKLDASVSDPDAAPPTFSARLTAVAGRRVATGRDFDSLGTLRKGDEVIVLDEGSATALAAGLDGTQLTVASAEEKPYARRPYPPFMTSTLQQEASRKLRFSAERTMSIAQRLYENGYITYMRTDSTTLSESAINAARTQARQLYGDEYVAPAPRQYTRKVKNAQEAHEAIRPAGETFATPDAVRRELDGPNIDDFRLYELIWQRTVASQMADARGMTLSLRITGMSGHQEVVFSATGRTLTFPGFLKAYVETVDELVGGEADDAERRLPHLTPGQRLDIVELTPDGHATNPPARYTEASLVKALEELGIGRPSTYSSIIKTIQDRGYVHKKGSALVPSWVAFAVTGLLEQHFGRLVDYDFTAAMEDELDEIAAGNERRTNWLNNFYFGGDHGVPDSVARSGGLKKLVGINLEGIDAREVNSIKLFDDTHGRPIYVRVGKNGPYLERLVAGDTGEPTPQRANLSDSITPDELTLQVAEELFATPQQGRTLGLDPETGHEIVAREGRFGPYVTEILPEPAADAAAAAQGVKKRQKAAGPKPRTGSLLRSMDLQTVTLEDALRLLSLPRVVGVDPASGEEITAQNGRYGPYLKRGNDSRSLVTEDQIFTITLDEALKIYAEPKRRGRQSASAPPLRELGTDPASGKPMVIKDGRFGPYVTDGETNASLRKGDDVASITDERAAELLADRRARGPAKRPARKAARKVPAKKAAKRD
Sequence of M. tuberculosis gyrase (P9WG45 whole entry, looked up): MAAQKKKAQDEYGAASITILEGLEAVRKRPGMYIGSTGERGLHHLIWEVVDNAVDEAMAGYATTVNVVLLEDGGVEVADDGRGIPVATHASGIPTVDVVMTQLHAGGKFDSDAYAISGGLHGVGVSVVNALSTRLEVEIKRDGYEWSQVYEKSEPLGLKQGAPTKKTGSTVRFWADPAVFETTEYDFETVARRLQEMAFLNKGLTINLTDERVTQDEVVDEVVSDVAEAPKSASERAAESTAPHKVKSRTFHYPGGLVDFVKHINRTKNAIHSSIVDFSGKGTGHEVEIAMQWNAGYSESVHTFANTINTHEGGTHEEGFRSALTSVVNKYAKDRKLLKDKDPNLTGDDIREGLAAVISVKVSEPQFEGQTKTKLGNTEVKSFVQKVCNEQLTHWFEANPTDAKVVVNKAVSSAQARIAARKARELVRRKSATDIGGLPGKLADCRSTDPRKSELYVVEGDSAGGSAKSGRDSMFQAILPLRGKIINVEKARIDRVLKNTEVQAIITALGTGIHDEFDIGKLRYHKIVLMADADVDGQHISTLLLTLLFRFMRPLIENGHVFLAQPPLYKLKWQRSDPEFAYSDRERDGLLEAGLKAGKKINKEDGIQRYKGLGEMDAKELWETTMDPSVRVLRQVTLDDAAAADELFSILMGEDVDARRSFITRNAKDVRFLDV
Sequence of M. tuberculosis gyrase (P9WG47 whole entry, looked up): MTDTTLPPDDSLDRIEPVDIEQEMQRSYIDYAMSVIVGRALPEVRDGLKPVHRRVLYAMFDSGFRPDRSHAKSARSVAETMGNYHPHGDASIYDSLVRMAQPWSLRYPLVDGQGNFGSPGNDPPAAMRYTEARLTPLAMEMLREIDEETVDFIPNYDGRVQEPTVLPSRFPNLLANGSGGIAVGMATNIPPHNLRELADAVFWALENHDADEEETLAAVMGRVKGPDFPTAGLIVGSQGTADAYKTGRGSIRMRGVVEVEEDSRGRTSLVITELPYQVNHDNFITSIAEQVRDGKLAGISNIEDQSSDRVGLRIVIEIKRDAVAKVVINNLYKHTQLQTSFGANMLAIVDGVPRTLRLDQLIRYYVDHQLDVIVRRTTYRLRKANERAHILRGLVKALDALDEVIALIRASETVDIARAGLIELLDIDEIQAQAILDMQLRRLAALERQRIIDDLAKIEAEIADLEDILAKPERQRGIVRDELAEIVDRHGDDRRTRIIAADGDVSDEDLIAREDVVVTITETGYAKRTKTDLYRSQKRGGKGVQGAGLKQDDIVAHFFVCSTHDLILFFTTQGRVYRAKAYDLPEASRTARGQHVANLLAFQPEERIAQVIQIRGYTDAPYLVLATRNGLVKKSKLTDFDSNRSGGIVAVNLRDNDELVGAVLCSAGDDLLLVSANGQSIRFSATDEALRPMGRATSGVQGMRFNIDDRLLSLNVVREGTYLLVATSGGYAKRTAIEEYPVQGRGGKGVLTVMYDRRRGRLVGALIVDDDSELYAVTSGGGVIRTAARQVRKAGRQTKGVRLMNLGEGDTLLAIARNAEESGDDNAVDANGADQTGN

C1=NCCCCN=Cc2ccc3[n]2[Au+][n]2c1ccc2-c1nc2ccccc2nc1-3.F[P-](F)(F)(F)(F)F [Compound 10]
inhibition of topoisomerase I (MtbTopo1 relaxation) (MtbTopo1): able to inhibit topoisomerase I
activity against topoisomerase II (M. tuberculosis gyrase supercoiling) (M. tuberculosis gyrase): neither had significant activity
loss of the Au(III) ion [1]: cannot be lost since it is very tightly bound
MIC Mab (Mab 390S-lux): 5.4 µM and 5.44 µM
MIC Mtb (Mtb-lux): 0.12 µM
tolerability (tolerability of mice): tolerated
IC50 [2]: 85.8 µM
activity against topoisomerase II (E. coli gyrase supercoiling) (E. coli gyrase): neither had significant activity
inhibition of topoisomerase I (EcTopo1 relaxation) (EcTopo1): able to inhibit topoisomerase I
mode of action against Mtb (Mtb CDC1551): almost completely bacteriostatic
decrease relative to vehicle control (Mtb CDC1551; at 64-fold MIC): 1 log

CC(=O)OC[C@H]1O[C@@H]([S-])[C@H](OC(C)=O)[C@@H](OC(C)=O)[C@@H]1OC(C)=O.CCP(CC)CC.[Au+] [auranofin]
activity against Mtb (Mtb): bactericidal

NCC[C@H](O)C(=O)N[C@@H]1C[C@H](N)[C@@H](O[C@H]2O[C@H](CN)[C@@H](O)[C@H](O)[C@H]2O)[C@H](O)[C@H]1O[C@H]1O[C@H](CO)[C@@H](O)[C@H](N)[C@H]1O [amikacin]
bactericidal activity against Mab in vitro (Mab): poor bactericidal activity

CC[C@H]1OC(=O)[C@H](C)[C@@H](O[C@H]2C[C@@](C)(OC)[C@@H](O)[C@H](C)O2)[C@H](C)[C@@H](O[C@@H]2O[C@H](C)C[C@H](N(C)C)[C@H]2O)[C@](C)(OC)C[C@@H](C)C(=O)[C@H](C)[C@@H](O)[C@]1(C)O [clarithromycin]
bactericidal activity against Mab in vitro (Mab): poor bactericidal activity

C1=NCCCN=Cc2ccc3[n]2[Au+][n]2c1ccc2-c1nc2ccccc2nc1-3.F[P-](F)(F)(F)(F)F [Compound 8]
MIC Mab (Mab 390S-lux): 849.41 µM
MIC Mtb (Mtb-lux): 2.72 µM
IC50 [2]: 48.5 µM

ClC1CN=Cc2ccc3[n]2[Au+][n]2c(ccc2-c2nc4ccccc4nc2-3)C=NC1.F[P-](F)(F)(F)(F)F (centres unmarked) [Compound 11]
MIC Mab (Mab 390S-lux): 91.72 µM
MIC Mtb (Mtb-lux): 4.06 µM
IC50 [2]: 108 µM
decrease in CFU/mL, early time-point (Mtb CDC1551; 24 h): > 1 log
mode of action, latest time-point (Mtb CDC1551; 144 h, at 8, 4 and 2-fold MIC): bacteriostatic

CCOC1CN=Cc2ccc[n]2[Au+][n]2cccc2C=NC1.F[P-](F)(F)(F)(F)F (centres unmarked) [Compound 15]
MIC Mab (Mab 390S-lux): 13.05 µM
MIC Mtb (Mtb-lux): 4.61 µM
IC50 [2]: 48.9 µM
mode of action against Mtb (Mtb CDC1551): rapid and potent bactericidal activity
